For the assay, the system named is PMA/ionomycin-stimulated PBMC proliferation. As to the kind of experiment: Inhibition of PMA/ionomycin-stimulated peripheral blood mononuclear cell proliferation. The assay is classed as cell-based. To be noted: human PBMC, PMA 0.5 ng/ml + ionomycin 500 ng/ml, 72 hours, 3H-thymidine incorporation; read-out: PIA50 (the source's name) (converted). Here is the method: Inhibition of PMA/Ionomycin-Stimulated Peripheral Blood Mononuclear Cell Proliferation
The assay for PMA/ionomycin-stimulated PBMC proliferation was performed in 96-well flat-bottomed microtitre plates. Compounds were prepared as 10 mM stock solutions in dimethyl sulfoxide. A 50-fold dilution of this was prepared in RPMI and serial dilutions were prepared from this solution. 10 μl of the 50-fold diluted stock, or dilutions of it, were added to the well to give concentrations in the assay starting at 9.5 μM and going down. Into each well was placed 1×10^5 PBMC, prepared from human peripheral blood from a single donor, in RPMI1640 medium supplemented with 10% human serum, 2 mM glutamine and penicillin/streptomycin. Phorbol myristate acetate (PMA) (0.5 ng/ml final concentration) and ionomycin (500 ng/ml final concentration) were added to these cells in supplemented RPMI1640 medium (as above) so that the final volume of the assay was 0.2 ml. The cells were incubated at 37° C. in a humidified atmosphere at 5% carbon dioxide for 72 hours. ^3H-Thymidine (0.5 μCi) was added for the final 6 hours of the incubation. The level of radioactivity incorporated by the cells was then determined and this is a measure of proliferation.
Background: Dividing cells build labelled thymidine or BrdU into new DNA.

Here are results for two compounds from US20080221131A1, “THIENOPYRIMIDINEDIONES AND THEIR USE IN MODULATION OF AUTOIMMUNE DISEASE” (priority 2003, published 2008).

Consider `Cc1nn(-c2nccs2)c(C)c1Cc1sc2c(c1C(=O)N1C[C@H](O)CO1)c(=O)n(C)c(=O)n2C(C)C` [Example 3, (S)-2-[[6-[[3,5-Dimethyl-1-(2-thiazolyl)-1H-pyrazol-4-yl]methyl]-1,2,3,4-tetrahydro-3-methyl-1-(1-methylethyl)-2,4-dioxothieno[2,3-d]pyrimidin-5-yl]carbonyl]-4-isoxazolidinol], for which the IC50 is 0.851 nM.

For `Cc1nn(-c2ncccn2)c(C)c1Cc1sc2c(c1C(=O)N1C[C@H](O)CO1)c(=O)n(C)c(=O)n2C(C)C` [Example 1, 6-[[3,5-dimethyl-1-(2-pyrimidinyl)-1H-pyrazol-4-yl]methyl]-5-[[(4S)-4-hydroxy-2-isoxazolidinyl]carbonyl]-3-methyl-1-(1-methylethyl)thieno[2,3-d]pyrimidine-2,4(1H,3H)-dione], the IC50 is 5.01 nM.
